Experimental findings from patent publication EP1949908A1, “Combined use of derivatives of GLP-1 analogs and PPAR ligands” (NOVO NORDISK A/S, priority 2001, dated 2002) are described below.

This test deals with male ZDF rat. Kind of test: Four weeks treatment of overtly diabetic male ZDF rats: HbA1c and 24-hour glucose profile. The class given is in vivo. The conditions noted are these: mean±SEM, n=10, propionic acid compound 1 mg/kg oral gavage once daily, GLP-1 derivative 50 µg/kg subcutaneously twice daily. The method, then: Ninety male ZDF rats aged 15-16 weeks were used in the study. Before treatment start, measurements of glucose and HbA1c were performed. All animals were overtly diabetic at the beginning of the study. Animals were allocated into the following 4 treatment groups:
(-)-2-Ethoxy-3-(4-(2-phenoxazin-10-yl-ethoxy)-phenyl)-propionic acid and Vehicle-1 were administered by oral gavage once daily at approx. 07:30. Arg^34, Lys^26(N^ε-(γ-Glu(N^α-hexadecanoyl)))-GLP-1 (7-37) and Vehicle-2 were administered subcutaneously twice daily at approx. 07:30 and 14:30.
After four weeks treatment, HbA1c was measured and 24-hour glucose profiles were assessed.
Delta HbA1c refers to the numerical difference between the measurement after treatment and the measurement before treatment. Glucose24hAUC refers to the total area under the glucose concentration curve during the 24-hour period. A two-way analysis of variance was performed for each parameter and the significance of the interaction term evaluated.

Regarding `CCOC(Cc1ccc(OCCN2c3ccccc3Oc3ccccc32)cc1)C(=O)O` (single isomer, unassigned; (-)) [(-)-2-ethoxy-3-(4-(2-phenoxazin-10-yl-ethoxy)-phenyl)-propionic acid], the “Delta HbA1c” value (after four weeks treatment minus before treatment) is on record as -0.81±0.36 % points. For the setting “total area under the glucose concentration curve during 24-hour period after four weeks treatment”, this compound came in with a Glucose24hAUC of 456 ± 38 mM·h.
